{
  "source": "patent US10081561B2",
  "about": "“Reduction of hydrogen sulfide and/or malodor gassing from water via the addition of peroxyacetic acid/hydrogen peroxide product” (priority 2013, dated 2018)",
  "system": "aerobe population and SRP population",
  "test": "PAA demand study, assumed microbial kill efficiency (FIG. 2)",
  "assay_type": "cell-based",
  "conditions": "assumed for FIG. 2",
  "source_text": "Referring now to FIG. 2 there is shown a graph of one such example. If we assume that in a given system the aerobe population is 1,000,000 per mL and the SRP population is 100,000 per mL and we perform a PAA demand study to understand the microbial kill efficiency we can then determine how much PAA to add to minimize the SRP population without killing so many aerobes that it is detrimental to the waste water plant. This graph assumes that reduction after treatment may be something like: 50% reduction with a 20 ppm PAA treatment, 90% reduction with a 40 ppm treatment, and 99% reduction with a 60 ppm treatment. The goal of treatment would be to suppress the SPR population as much as possible while still allowing a sufficient number of aerobes to survive and move into the waste process.",
  "data": [
    {"smiles": "CC(=O)OO", "note": "[PAA, peroxyacetic acid]", "values": [
      {"measurement": "reduction after treatment", "setting": "20 ppm PAA treatment", "result": "~50", "unit": "%"},
      {"measurement": "reduction after treatment", "setting": "40 ppm treatment", "result": "~90", "unit": "%"},
      {"measurement": "reduction after treatment", "setting": "60 ppm treatment", "result": "~99", "unit": "%"}
    ]}
  ]
}
